Data on 16 compounds can be found in patent US7829568B2, “Substituted 5,6,7,8-tetrahydroimidazo[1,2-a]pyridin-2-ylamine compounds and their use for producing drugs” (Gruenenthal GmbH, priority 2005, dated 2010).

This experiment relates to batrachotoxin (BTX) binding site of the sodium channel. The experiment can be described thus: Affinity to the batrachotoxin (BTX) binding site of the sodium channel. More on the design: species or system rat. Particulars: [3H]-batrachotoxinin A20 α-benzoate 10 nM; synaptosomes from rat cerebral cortex; test concentration not given.

As for `CC(NC(=O)c1c(N(C)C(=O)c2cccc(Cl)c2)nc2n1CCCC2)C12CC3CC(CC(C3)C1)C2` (stereo not shown) [Example 165, 2-[(3-chloro-benzoyl)-methyl-amino]-5,6,7,8-tetrahydro-imidazo[1,2-a]pyridine-3-carboxylic acid (1-adamantan-1-yl-ethyl)-amide], the “BTX inhibition (rat) (% inhibition)” value is recorded as 39%.
Next, `CCCCN(C(=O)c1cccc(Cl)c1)c1nc2n(c1C(=O)N(C)C1CCN(Cc3c(Cl)cccc3Cl)C1)CCCC2` (stereo not shown) [Example 87, 2-[butyl-(3-chloro-benzoyl)-amino]-5,6,7,8-tetrahydro-imidazo[1,2-a]pyridine-3-carboxylic acid [1-(2,6-dichloro-benzyl)-pyrrolidin-3-yl]-methyl-amide]: 93%; `CN(C(=O)c1cccc2ccccc12)c1nc2n(c1C(=O)NC1CCCCC1)CCCC2` [Example 154, 2-[methyl-(naphthalene-1-carbonyl)-amino]-5,6,7,8-tetrahydro-imidazo[1,2-a]pyridine-3-carboxylic acid cyclohexylamide]: 92%.
On to `CN(C(=O)c1cccc2ccccc12)c1nc2n(c1C(=O)Nc1ccc(Oc3ccccc3)cc1)CCCC2` [Example 185, 2-[methyl-(naphthalene-1-carbonyl)-amino]-5,6,7,8-tetrahydro-imidazo[1,2-a]pyridine-3-carboxylic acid (4-phenoxy-phenyl)-amide], for which the “BTX inhibition (rat) (% inhibition)” value came to 74%.
In the case of `COc1cc(OC)c(CN2CCN(C(=O)c3c(N(C)C(=O)c4cccc(Cl)c4)nc4n3CCCC4)CC2)c(OC)c1` [Example 146, 3-chloro-N-methyl-N-{3-[4-(2,4,6-trimethoxy-benzyl)-piperazine-1-carbonyl]-5,6,7,8-tetrahydro-imidazo[1,2-a]pyridin-2-yl}-benzamide], the “BTX inhibition (rat) (% inhibition)” value is 70%.
In the case of `CCCCN(C(=O)c1cccc(Cl)c1)c1nc2n(c1C(=O)NCCc1ccc(Oc3ccccc3)cc1)CCCC2` [Example 134, 2-[butyl-(3-chloro-benzoyl)-amino]-5,6,7,8-tetrahydro-imidazo[1,2-a]pyridine-3-carboxylic acid [2-(4-phenoxy-phenyl)-ethyl]-amide] it was 93%; in that of `CCc1ccccc1N1CCN(C(=O)c2c(N(C)C(=O)c3ccccc3)nc3n2CCCC3)CC1` [Example 3, N-{3-[4-(2-ethyl-phenyl)-piperazine-1-carbonyl]-5,6,7,8-tetrahydro-imidazo[1,2-a]pyridin-2-yl}-N-methyl-benzamide], 34%.
In the case of `CN(C(=O)c1cccc2ccccc12)c1nc2n(c1C(=O)NC(c1ccccc1)c1ccc(Cl)cc1)CCCC2` (stereo not shown) [Example 139, 2-[methyl-(naphthalene-1-carbonyl)-amino]-5,6,7,8-tetrahydro-imidazo[1,2-a]pyridine-3-carboxylic acid [(4-chlor-phenyl)-phenyl-methyl]-amide] it was 73%.
Next, `CCCCN(C(=O)c1cccc(Cl)c1)c1nc2n(c1C(=O)NC1CCCCC1)CCCC2` [Example 120, 2-[butyl-(3-chloro-benzoyl)-amino]-5,6,7,8-tetrahydro-imidazo[1,2-a]pyridine-3-carboxylic acid cyclohexylamide]: 61%; `CCCCN(C(=O)c1cccc(Cl)c1)c1nc2n(c1C(=O)NCCN1CCCC1)CCCC2` [Example 58, 2-[butyl-(3-chloro-benzoyl)-amino]-5,6,7,8-tetrahydro-imidazo[1,2-a]pyridine-3-carboxylic acid (2-pyrrolidin-1-yl-ethyl)-amide]: 50%; `CCCCN(C(=O)c1cccc(Cl)c1)c1nc2n(c1C(=O)NCc1ccccc1C(F)(F)F)CCCC2` [Example 51, 2-[butyl-(3-chloro-benzoyl)-amino]-5,6,7,8-tetrahydro-imidazo[1,2-a]pyridine-3-carboxylic acid 2-trifluoromethyl-benzylamide]: 35%.
On to `CCc1ccccc1N1CCN(C(=O)c2c(N(C)C(=O)c3cccc4ccccc34)nc3n2CCCC3)CC1` [Example 136, naphthalene-1-carboxylic acid {3-[4-(2-ethyl-phenyl)-piperazine-1-carbonyl]-5,6,7,8-tetrahydro-imidazo[1,2-a]pyridin-2-yl}-methyl-amide], for which the “BTX inhibition (rat) (% inhibition)” value was determined as 54%.
Next, `CCCCN(C(=O)c1ccc(F)c(F)c1)c1nc2n(c1C(=O)NC1CCCCC1OCc1ccccc1)CCCC2` (stereo not shown) [Example 161, 2-[butyl-(3,4-difluoro-benzoyl)-amino]-5,6,7,8-tetrahydro-imidazo[1,2-a]pyridine-3-carboxylic acid (2-benzyloxy-cyclohexyl)-amide]: 49%; `CCOc1ccc(Br)cc1CN1CCN(C(=O)c2c(N(C)C(=O)Cc3ccccc3)nc3n2CCCC3)CC1` [Example 130, N-{3-[4-(5-bromo-2-ethoxy-benzyl)-piperazine-1-carbonyl]-5,6,7,8-tetrahydro-imidazo[1,2-a]pyridin-2-yl}-N-methyl-2-phenyl-acetamide]: 67%.
In the case of `CN(C(=O)c1cccc2ccccc12)c1nc2n(c1C(=O)N(C)C1CCN(Cc3ccc(-c4ccccc4)cc3)C1)CCCC2` (stereo not shown) [Example 76, 2-[methyl-(naphthalene-1-carbonyl)-amino]-5,6,7,8-tetrahydro-imidazo[1,2-a]pyridine-3-carboxylic acid (1-biphenyl-4-ylmethyl-pyrrolidin-3-yl)-methyl-amide] it was 95%.
In the case of `CCCCN(C(=O)c1ccc(F)c(F)c1)c1nc2n(c1C(=O)N1CCN(c3cc(Cl)ccc3C)CC1)CCCC2` [Example 119, N-butyl-N-{3-[4-(5-chloro-2-methyl-phenyl)-piperazine-1-carbonyl]-5,6,7,8-tetrahydro-imidazo[1,2-a]pyridin-2-yl}-3,4-difluoro-benzamide] it was 83%.
